Assay results from patent publication US8293753B2, “Substituted 2-carboxamide cycloamino ureas” (Novartis AG, priority 2009, dated 2012).

Legend:
Assay type in all cases: biochemical
PI3Kα = biological target: T1, PI3Kα (Homo sapiens, UniProt P42336); assay: PI3K KinaseGlo assay, PI3Kalpha; conditions: 1 μM ATP, 10 nM enzyme, 30 mins
T1 construct: His (C); made in house; host or cells: baculovirus / Tn5 insect cells

PI3Kγ = biological target: T2, PI3Kγ (Homo sapiens, UniProt P48736, Q459R); assay: PI3K KinaseGlo assay, PI3Kgamma; conditions: for IC50: KinaseGlo, 1 μM ATP, 150 nM enzyme, 90 mins; for PI3Kgamma (selectivity): selectivity factor: PI3Kgamma IC50 divided by PI3Kalpha IC50
T2 construct: His (C); made in house; host or cells: Tn5 insect cells; construct obtained from Roger Williams lab (MRC LMB)
T2 sequence (P48736 with tags, fused parts or gaps Q459R): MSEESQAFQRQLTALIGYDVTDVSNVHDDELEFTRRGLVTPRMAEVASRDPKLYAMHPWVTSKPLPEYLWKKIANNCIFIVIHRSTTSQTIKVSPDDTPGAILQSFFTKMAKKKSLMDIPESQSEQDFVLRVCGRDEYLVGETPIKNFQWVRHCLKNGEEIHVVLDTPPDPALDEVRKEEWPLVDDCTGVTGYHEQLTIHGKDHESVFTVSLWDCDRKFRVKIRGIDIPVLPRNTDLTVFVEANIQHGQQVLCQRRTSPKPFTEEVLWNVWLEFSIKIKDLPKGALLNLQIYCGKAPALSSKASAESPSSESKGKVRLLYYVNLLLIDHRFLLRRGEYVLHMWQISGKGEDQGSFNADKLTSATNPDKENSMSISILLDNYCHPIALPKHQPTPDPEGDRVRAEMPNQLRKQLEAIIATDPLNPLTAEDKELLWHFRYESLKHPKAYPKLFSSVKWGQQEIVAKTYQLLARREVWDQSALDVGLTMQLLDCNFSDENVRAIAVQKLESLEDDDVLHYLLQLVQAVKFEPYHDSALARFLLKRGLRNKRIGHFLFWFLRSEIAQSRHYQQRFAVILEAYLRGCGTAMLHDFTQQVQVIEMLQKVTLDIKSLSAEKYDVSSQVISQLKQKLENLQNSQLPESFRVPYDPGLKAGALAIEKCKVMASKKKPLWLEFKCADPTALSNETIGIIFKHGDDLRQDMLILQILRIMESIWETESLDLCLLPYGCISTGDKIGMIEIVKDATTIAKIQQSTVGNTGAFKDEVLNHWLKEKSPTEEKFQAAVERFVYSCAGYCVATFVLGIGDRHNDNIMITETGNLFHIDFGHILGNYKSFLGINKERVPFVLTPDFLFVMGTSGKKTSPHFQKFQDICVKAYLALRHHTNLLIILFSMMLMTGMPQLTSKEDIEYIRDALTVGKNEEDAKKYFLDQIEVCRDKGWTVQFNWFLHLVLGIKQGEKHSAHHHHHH
Experimental: PI3K KinaseGlo assay: […] of compound dilutions were dispensed onto black 384-well low volume Non Binding Styrene (NBS) plates (Costar Cat. No. NBS#3676). L-a-phosphatidylinositol (PI), provided as 10 mg/ml solution in methanol, was transferred into a glass tube and dried under nitrogen beam. It was then resuspended in 3% OctylGlucoside (OG) by vortexing and stored at 4° C. The KinaseGlo Luminescent Kinase Assay (Promega, Madison/WI, USA) is a homogeneous HTS method of measuring kinase activity by quantifying the amount of ATP remaining in solution following a kinase reaction.
5 μL of a mix of PI/OG with the PI3K subtype were added (Table 1). Kinase reactions were started by addition of 5 μl of ATP-mix containing in a final volume 10 μL 10 mM TRIS-HCl pH 7.5, 3 mM MgCl2, 50 mM NaCl, 0.05% CHAPS, 1 mM DTT and 1 μM ATP, and occurred at room temperature. Reactions were stopped with 10 μl of KinaseGlo and plates were read 10 mins later in a Synergy2 reader using an integration time of 0.1 seconds per well. […] The standard was used as a reference compound and included in all assay plates in the form of 16 dilution points in duplicate.
The PI3Kα, PI3Kβ and PI3Kδ constructs are fusion of p85α iSH2 domain and the respective p110 isoforms. The p85α fragment and p110 isoform genes were generated by PCR from first strand cDNA generated by RT-PCR from commercial RNA from placenta, testis and brain as described below. The PI3Kγ construct was obtained from Roger Williams lab, MRC Laboratory of Molecular Biology, Cambridge, UK (November, 2003) and is described (Pacold, Michael E.; Suire, Sabine; Perisic, Olga; Lara-Gonzalez, Samuel; Davis, Colin T.; Walker, Edward H.; Hawkins, Phillip T.; Stephens, Len; Eccleston, John F.; Williams, Roger L. Crystal structure and functional analysis of Ras binding to its effector phosphoinositide 3-kinase gamma. Cell (2000), 103(6), 931-943).
Construct obtained from Roger Williams lab, MRC Laboratory of Molecular Biology, Cambridge, UK (November, 2003). Description of the construct in (Pacold, Michael E.; Suire, Sabine; Perisic, Olga; Lara-Gonzalez, Samuel; Davis, Colin T.; Walker, Edward H.; Hawkins, Phillip T.; Stephens, Len; Eccleston, John F.; Williams, Roger L. Crystal structure and functional analysis of Ras binding to its effector phosphoinositide 3-kinase gamma. Cell (2000), 103(6), 931-943). Constructs lacking the N-terminal 144 aa.

PI3Kδ = biological target: T3, PI3Kδ (Homo sapiens, UniProt O00329); assay: PI3K KinaseGlo assay, PI3Kdelta; conditions: for IC50: KinaseGlo, 1 μM ATP, 10 nM enzyme, 30 mins; for PI3Kdelta (selectivity): selectivity factor: PI3Kdelta IC50 divided by PI3Kalpha IC50
T3 construct: p85iSH2(461-568)-GGGGGG-p110δ(2-1044)-His; His (C); made in house; host or cells: baculovirus / Tn5 insect cells
T3 sequence (O00329 with tags, fused parts or gaps): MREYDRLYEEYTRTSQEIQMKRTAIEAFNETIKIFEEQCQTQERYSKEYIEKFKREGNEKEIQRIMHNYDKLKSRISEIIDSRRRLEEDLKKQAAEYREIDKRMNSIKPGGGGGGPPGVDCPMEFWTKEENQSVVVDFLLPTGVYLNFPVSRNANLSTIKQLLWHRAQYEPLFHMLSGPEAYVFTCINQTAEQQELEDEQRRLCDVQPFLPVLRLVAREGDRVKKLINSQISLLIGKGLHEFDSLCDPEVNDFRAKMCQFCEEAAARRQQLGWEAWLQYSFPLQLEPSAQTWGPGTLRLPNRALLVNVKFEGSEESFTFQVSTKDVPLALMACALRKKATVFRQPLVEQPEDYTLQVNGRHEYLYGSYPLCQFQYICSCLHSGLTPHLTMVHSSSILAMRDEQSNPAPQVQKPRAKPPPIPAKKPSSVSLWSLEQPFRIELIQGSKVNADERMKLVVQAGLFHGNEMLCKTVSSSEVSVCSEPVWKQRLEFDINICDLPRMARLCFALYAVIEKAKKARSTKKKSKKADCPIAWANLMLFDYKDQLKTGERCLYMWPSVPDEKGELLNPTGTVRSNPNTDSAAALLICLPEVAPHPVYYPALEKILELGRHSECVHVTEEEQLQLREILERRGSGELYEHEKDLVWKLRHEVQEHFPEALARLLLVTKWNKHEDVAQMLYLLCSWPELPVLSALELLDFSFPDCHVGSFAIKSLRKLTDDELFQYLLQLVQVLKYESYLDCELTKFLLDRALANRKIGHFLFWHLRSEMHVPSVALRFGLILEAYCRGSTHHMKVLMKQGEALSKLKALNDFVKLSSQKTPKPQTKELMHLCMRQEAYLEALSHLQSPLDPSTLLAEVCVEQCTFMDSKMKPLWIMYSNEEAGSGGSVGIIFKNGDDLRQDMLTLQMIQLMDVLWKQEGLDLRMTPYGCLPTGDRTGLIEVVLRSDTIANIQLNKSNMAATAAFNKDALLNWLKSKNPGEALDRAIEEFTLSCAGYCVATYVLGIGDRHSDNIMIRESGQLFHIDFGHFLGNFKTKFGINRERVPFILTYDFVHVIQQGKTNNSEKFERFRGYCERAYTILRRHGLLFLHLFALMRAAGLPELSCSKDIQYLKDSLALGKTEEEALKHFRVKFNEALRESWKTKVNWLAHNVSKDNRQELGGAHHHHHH

PI3Kβ = biological target: T4, PI3Kβ (Homo sapiens, UniProt P42338); assay: PI3K KinaseGlo assay, PI3Kbeta; conditions: for IC50: KinaseGlo, 1 μM ATP, 25 nM enzyme, 30 mins; for PI3Kbeta (selectivity): selectivity factor: PI3Kbeta IC50 divided by PI3Kalpha IC50
T4 construct: His (C); made in house; host or cells: baculovirus / Tn5 insect cells
T4 sequence (P42338 with tags, fused parts or gaps): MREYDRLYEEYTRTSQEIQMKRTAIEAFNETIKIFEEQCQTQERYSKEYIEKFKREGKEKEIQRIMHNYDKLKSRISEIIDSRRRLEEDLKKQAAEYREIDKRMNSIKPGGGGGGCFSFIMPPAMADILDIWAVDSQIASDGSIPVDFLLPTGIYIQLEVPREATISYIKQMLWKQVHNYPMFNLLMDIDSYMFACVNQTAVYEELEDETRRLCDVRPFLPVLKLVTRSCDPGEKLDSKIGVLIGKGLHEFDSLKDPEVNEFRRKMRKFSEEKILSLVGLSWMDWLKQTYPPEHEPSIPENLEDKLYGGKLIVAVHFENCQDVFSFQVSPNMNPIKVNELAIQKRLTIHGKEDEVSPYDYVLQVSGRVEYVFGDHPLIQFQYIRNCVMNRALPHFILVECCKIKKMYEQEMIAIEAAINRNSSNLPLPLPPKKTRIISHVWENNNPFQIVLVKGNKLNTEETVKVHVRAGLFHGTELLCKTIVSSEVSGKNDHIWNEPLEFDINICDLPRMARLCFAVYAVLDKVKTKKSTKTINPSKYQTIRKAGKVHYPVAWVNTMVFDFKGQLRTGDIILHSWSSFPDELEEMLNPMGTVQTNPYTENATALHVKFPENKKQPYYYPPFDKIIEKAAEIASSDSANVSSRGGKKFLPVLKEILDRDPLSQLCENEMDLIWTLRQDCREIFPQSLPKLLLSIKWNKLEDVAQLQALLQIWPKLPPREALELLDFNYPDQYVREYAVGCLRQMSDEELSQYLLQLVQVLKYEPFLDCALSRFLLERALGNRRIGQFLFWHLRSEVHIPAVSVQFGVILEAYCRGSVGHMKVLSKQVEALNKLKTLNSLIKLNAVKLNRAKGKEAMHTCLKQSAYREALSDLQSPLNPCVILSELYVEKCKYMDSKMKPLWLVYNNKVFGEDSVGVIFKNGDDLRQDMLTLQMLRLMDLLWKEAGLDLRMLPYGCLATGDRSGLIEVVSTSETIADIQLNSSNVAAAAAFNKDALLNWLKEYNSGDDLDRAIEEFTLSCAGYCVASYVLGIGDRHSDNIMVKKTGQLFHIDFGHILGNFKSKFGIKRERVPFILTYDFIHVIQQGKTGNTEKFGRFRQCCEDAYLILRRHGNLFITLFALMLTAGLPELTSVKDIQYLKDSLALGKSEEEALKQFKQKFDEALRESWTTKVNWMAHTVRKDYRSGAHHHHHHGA

T1 sequence (P42336 with tags, fused parts or gaps): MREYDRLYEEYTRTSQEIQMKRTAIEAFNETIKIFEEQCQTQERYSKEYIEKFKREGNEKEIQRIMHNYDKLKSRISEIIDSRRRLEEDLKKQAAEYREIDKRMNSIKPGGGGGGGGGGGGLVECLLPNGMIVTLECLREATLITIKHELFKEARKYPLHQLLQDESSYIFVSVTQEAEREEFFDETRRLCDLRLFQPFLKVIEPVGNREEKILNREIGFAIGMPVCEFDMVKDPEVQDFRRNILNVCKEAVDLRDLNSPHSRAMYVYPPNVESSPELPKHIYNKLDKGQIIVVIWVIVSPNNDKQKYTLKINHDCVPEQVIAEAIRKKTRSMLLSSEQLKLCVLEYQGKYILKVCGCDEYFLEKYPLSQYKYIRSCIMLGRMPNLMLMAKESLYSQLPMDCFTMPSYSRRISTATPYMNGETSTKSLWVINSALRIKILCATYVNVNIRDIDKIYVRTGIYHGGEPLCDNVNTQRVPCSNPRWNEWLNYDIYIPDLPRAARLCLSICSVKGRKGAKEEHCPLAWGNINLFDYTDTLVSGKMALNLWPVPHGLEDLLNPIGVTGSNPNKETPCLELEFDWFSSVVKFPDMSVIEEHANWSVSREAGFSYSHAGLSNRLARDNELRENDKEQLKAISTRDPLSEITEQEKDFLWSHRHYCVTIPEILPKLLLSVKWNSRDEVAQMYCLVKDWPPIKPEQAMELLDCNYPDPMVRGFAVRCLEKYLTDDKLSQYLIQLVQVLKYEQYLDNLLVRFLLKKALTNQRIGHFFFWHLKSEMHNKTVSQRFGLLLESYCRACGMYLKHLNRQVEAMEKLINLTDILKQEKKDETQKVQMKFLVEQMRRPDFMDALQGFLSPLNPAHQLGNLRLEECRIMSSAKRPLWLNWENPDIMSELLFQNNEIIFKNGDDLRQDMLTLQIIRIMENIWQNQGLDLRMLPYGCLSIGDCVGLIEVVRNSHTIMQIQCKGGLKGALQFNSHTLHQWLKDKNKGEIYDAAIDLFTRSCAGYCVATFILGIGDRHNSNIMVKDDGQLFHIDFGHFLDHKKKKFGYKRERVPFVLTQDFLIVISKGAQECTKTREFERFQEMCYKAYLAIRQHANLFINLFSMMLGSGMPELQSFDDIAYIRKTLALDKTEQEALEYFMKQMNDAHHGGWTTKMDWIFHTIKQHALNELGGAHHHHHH

| IC50 (PI3Kα) [nM] | IC50 (PI3Kγ) [nM] | PI3Kgamma (selectivity) (PI3Kγ) | IC50 (PI3Kδ) [nM] | PI3Kdelta (selectivity) (PI3Kδ) | IC50 (PI3Kβ) [nM] | PI3Kbeta (selectivity) (PI3Kβ) | SMILES |
| --- | --- | --- | --- | --- | --- | --- | --- |
| 27 | 104 | (3) | 59 | (2) | 1200 | (44) | Cc1nc(NC(=O)N2CC[C@@H](C)[C@H]2C(N)=O)sc1-c1ccnc(C(C)(C)C(F)(F)F)c1 [Example 2, (2S,3R)-3-Methyl-pyrrolidine-1,2-dicarboxylic acid 2-amide 1-({4-methyl-5-[2-(2,2,2-trifluoro-1,1-dimethyl-ethyl)-pyridin-4-yl]-thiazol-2-yl}-amide)] |
| 10 | 200 | (20) | 586 | (58) | > 9100 | (910) | Cc1nc(NC(=O)N2CC[C@@H](C)[C@H]2C(N)=O)sc1-c1ccnc(C(C)(C)F)n1 [Example 9, (2S,3R)-3-Methyl-pyrrolidine-1,2-dicarboxylic acid 2-amide 1-({5-[2-(1-fluoro-1-methyl-ethyl)-pyrimidin-4-yl]-4-methyl-thiazol-2-yl}-amide)] |
| 4.5 | 76 | (16) | 33 | (7) | 1590 | (353) | [2H]C([2H])([2H])C(c1nccc(-c2sc(NC(=O)N3CC[C@@H](C)[C@H]3C(N)=O)nc2C)n1)(C([2H])([2H])[2H])C([2H])([2H])[2H] [Example 12, (2S,3R)-3-Methylpyrrolidine-1,2-dicarboxylic acid 2-amide 1-{[5-(2-d9-tert-butyl-pyrimidin-4-yl)-4-methyl-thiazol-2-yl]-amide}] |
| 4 | 418 | (104) | 49 | (12) | 938 | (234) | [2H]C([2H])([2H])C([2H])([2H])N(c1cncc(-c2sc(NC(=O)N3CC[C@@H](C)[C@H]3C(N)=O)nc2C)n1)C([2H])([2H])C([2H])([2H])[2H] [Example 13, (2S,3R)-3-Methyl-pyrrolidine-1,2-dicarboxylic acid 2-amide 1-{[5-(6-d10-diethylamino-pyrazin-2-yl)-4-methyl-thiazol-2-yl]-amide}] |
| 9 |  |  | 113 | (13) | 2170 | (241) | Cc1nc(NC(=O)N2CC[C@@H](C)[C@H]2C(N)=O)sc1-c1ccnc(C(C)(C)C)c1 [Example 16, (2S,3R)-3-Methyl-pyrrolidine-1,2-dicarboxylic acid 2-amide 1-{[5-(2-tert-butyl-pyridin-4-yl)-4-methyl-thiazol-2-yl]-amide}] |

Second part, the compound before the results:

| SMILES | IC50 (PI3Kα) [nM] | IC50 (PI3Kγ) [nM] | PI3Kgamma (selectivity) (PI3Kγ) | IC50 (PI3Kδ) [nM] | PI3Kdelta (selectivity) (PI3Kδ) | IC50 (PI3Kβ) [nM] | PI3Kbeta (selectivity) (PI3Kβ) |
| --- | --- | --- | --- | --- | --- | --- | --- |
| Cc1nc(NC(=O)N2CCC(C)(C)C2C(N)=O)sc1-c1ccnc(C2(C)CC2)c1 (racemic) [Example 3, (rac)-3,3-Dimethyl-pyrrolidine-1,2-dicarboxylic acid 2-amide 1-({4-methyl-5-[2-(1-methyl-cyclopropyl)-pyridin-4-yl]-thiazol-2-yl}-amide)] | 53 | 1080 | (20) | 800 | (15) | > 9100 | (>171) |
| Cc1nc(NC(=O)N2CCC(C)(C)C2C(N)=O)sc1-c1ccnc(C(C)(C)C(F)(F)F)c1 (racemic) [Example 4, (rac)-3,3-Dimethyl-pyrrolidine-1,2-dicarboxylic acid 2-amide 1-({4-methyl-5-[2-(2,2,2-trifluoro-1,1-dimethyl-ethyl)-pyridin-4-yl]-thiazol-2-yl}-amide)] | 91 | 1680 | (18) | 437 | (4) | 6960 | (76) |
| Cc1nc(NC(=O)N2CC[C@@H](C)[C@H]2C(N)=O)sc1-c1ccnc(C2(C)CC2)c1 [Example 1, (2S,3R)-3-Methyl-pyrrolidine-1,2-dicarboxylic acid 2-amide 1-({4-methyl-5-[2-(1-methyl-cyclopropyl)-pyridin-4-yl]-thiazol-2-yl}-amide)] | 7 | 175 | (25) | 168 | (24) | 2600 | (370) |
| CC(=O)NC[C@@H]1CCN(C(=O)Nc2nc(C)c(-c3ccnc(C4(C)CC4)c3)s2)[C@@H]1C(N)=O [Example 5, (2S,3S)-3-(Acetylamino-methyl)pyrrolidine-1,2-dicarboxylic acid 2-amide 1-({4-methyl-5-[2-(1-methyl-cyclopropyl)-pyridin-4-yl]-thiazol-2-yl}-amide)] | 18 |  |  | 240 | (13) | 3220 | (178) |
| CC(=O)NC[C@@H]1CCN(C(=O)Nc2nc(C)c(-c3ccnc(C(C)(C)C(F)(F)F)c3)s2)[C@@H]1C(N)=O [Example 6, (2S,3S)-3-(Acetylamino-methyl)-pyrrolidine-1,2-dicarboxylic acid 2-amide 1-({4-methyl-5-[2-(2,2,2-trifluoro-1,1-dimethyl-ethyl)-pyridin-4-yl]-thiazol-2-yl}-amide)] | 13 |  |  | 684 | (52) | 990 | (76) |
| Cc1nc(NC(=O)N2CC[C@@H](CN3CCOCC3)[C@H]2C(N)=O)sc1-c1ccnc(C2(C)CC2)c1 [Example 7, (2S,3S)-3-Morpholin-4-ylmethyl-pyrrolidine-1,2-dicarboxylic acid 2-amide 1-({4-methyl-5-[2-(1-methyl-cyclopropyl)-pyridin-4-yl]-thiazol-2-yl}-amide)] | 38 |  |  | 190 | (5) | 5150 | (136) |
| Cc1nc(NC(=O)N2CC[C@@H](CN3CCOCC3)[C@H]2C(N)=O)sc1-c1ccnc(C(C)(C)C(F)(F)F)c1 [Example 8, (2S,3S)-3-Morpholin-4-ylmethyl-pyrrolidine-1,2-dicarboxylic acid 2-amide 1-({4-methyl-5-[2-(2,2,2-trifluoro-1,1-dimethyl-ethyl)-pyridin-4-yl]-thiazol-2-yl}-amide)] | 6 |  |  | 49 | (8) | 2280 | (380) |
| COC[C@@H]1CCN(C(=O)Nc2nc(C)c(-c3ccnc(C(C)(C)C(F)(F)F)c3)s2)[C@@H]1C(N)=O [Example 14, (2S,3R)-3-Methoxymethyl-pyrrolidine-1,2-dicarboxylic acid 2-amide 1-({4-methyl-5-[2-(2,2,2-trifluoro-1,1-dimethyl-ethyl)-pyridin-4-yl]-thiazol-2-yl}-amide)] | 12 |  |  | 110 | (9) | 1460 | (122) |
| Cc1nc(NC(=O)N2CC[C@@H](CN(C)C)[C@H]2C(N)=O)sc1-c1ccnc(C(C)(C)C(F)(F)F)c1 [Example 15, (2S,3S)-3-Dimethylaminomethyl-pyrrolidine-1,2-dicarboxylic acid 2-amide 1-({4-methyl-5-[2-(2,2,2-trifluoro-1,1-dimethyl-ethyl)-pyridin-4-yl]-thiazol-2-yl}-amide)] | 17 |  |  | 93 | (5) | 3260 | (192) |
